Source: PubChem BioAssay AID602326 (NMMLSC, 2012)
The source made the active and inactive calls. The rule behind the calls is not given here.

Biological target: Lethal factor (Bacillus anthracis) (UniProt P15917)
Experiment: Bacillus anthracis lethal factor protease inhibitors, multiplex microsphere substrate cleavage, dose response confirmation (AID 602326)
Conditions: multiplex microsphere protease substrate cleavage assay

Chain of Lethal factor (Bacillus anthracis) (P15917 whole entry, looked up): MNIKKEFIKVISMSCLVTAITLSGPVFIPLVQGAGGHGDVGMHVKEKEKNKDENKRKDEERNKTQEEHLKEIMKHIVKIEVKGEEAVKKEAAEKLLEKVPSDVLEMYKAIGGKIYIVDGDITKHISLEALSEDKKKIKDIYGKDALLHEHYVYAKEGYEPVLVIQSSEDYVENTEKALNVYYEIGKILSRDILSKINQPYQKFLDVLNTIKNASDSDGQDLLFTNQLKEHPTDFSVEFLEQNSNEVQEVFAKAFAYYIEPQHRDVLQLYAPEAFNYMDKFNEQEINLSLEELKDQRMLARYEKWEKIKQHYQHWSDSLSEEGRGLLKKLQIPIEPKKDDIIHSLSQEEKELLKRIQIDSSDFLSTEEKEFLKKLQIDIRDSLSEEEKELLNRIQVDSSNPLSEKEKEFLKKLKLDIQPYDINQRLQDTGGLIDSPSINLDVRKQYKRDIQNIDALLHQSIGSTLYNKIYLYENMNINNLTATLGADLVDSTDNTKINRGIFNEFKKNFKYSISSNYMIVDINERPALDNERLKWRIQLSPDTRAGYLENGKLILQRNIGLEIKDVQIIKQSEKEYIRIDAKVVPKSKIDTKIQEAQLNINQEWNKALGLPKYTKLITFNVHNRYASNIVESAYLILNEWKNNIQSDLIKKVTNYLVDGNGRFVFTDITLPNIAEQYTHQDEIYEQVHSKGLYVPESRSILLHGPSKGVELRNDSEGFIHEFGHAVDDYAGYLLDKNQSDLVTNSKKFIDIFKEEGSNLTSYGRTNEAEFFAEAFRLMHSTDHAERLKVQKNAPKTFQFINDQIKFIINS

Question: Oc1[nH]c(N=C2N=c3ccccc3=N2)c2ccccc12 was tested. Which EC50 did it give?
Answer: The EC50 was > 20 µM (inactive).

Question: With O=c1c(/C=C(\O)c2ccccc2)nc2ccccc2n1-c1ccccc1 as the compound, how does the EC50 read?
Answer: Its EC50 is > 20 µM (inactive).
